One may read the EC50 as the midpoint of the concentration-response curve. By CC50 is commonly meant the concentration at which the toxic effect on the cells reaches its halfway point.

These results are taken from patent publication US11541055B2, “Inhibitors of human immunodeficiency virus replication” (ViiV Healthcare UK (No. 5) LIMITED, priority 2018, dated 2023).

Each structure is given as a SMILES string.

For data set [1], the system named is recombinant NL4-3 virus (Renilla luciferase) in MT-2 cells. The data set is described as follows: HIV cell culture assay (antiviral activity, luciferase readout). The following applies: Renilla, NL43. It is filed as cell-based. A digest of the protocol:
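Antiviral EC50 was derived via the median effect equation from luciferase signal. The signal came from MT-2 cultures infected for 4–5 days with a nef-deleted, Renilla luciferase-expressing NL4-3 reporter virus (made in 293T cells) in the presence of compound dilutions.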

A short description of data set [2]: Compound cytotoxicity, XTT-based colorimetric assay. It is filed as cell-based. The following applies: human; uninfected MT2 cells, day 4, XTT. Put shortly:
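Run under the antiviral-assay protocol but without virus. Viability was read on day 4 and CC50 values were derived from the readout.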

Take `COc1ccc(-c2ccc3c(=O)n(-c4ccc(Cl)c5c(NS(=O)(=O)C6CC6)nn(CC(F)F)c45)c([C@H](Cc4cc(F)cc(F)c4)NC(=O)Cn4nc(C(F)F)c5c4C(F)(F)[C@@H]4C[C@H]54)nc3c2)nn1` (atropisomer, axis not shown; (P)) [Example 90, N—((S)-1-((3P)-3-(4-chloro-3-(cyclopropanesulfonamido)-1-(2,2-difluoroethyl)-1H-indazol-7-yl)-7-(6-methoxypyridazin-3-yl)-4-oxo-3,4-dihydroquinazolin-2-yl)-2-(3,5-difluorophenyl)ethyl)-2-((3bS,4aR)-3-(difluoromethyl)-5,5-difluoro-3b,4,4a,5-tetrahydro-1H-cyclopropa[3,4]cyclopenta[1,2-c]pyrazol-1-yl)acetamide]: the EC50 in data set [1] turned out to be 0.085 nM. This compound yielded a CC50 at 4 days in data set [2] above 500 nM.
Turning to `CC(C)c1nccc(-c2ccc3c(=O)n(-c4ccc(Cl)c5c(NS(=O)(=O)C6CC6)nn(CC(F)F)c45)c([C@H](Cc4cc(F)cc(F)c4)NC(=O)Cn4nc(C(F)F)c5c4C(F)(F)[C@@H]4C[C@H]54)nc3c2)n1` (atropisomer, axis not shown; (P)) [Example 91, N—((S)-1-((3P)-3-(4-chloro-3-(cyclopropanesulfonamido)-1-(2,2-difluoroethyl)-1H-indazol-7-yl)-7-(2-isopropylpyrimidin-4-yl)-4-oxo-3,4-dihydroquinazolin-2-yl)-2-(3,5-difluorophenyl)ethyl)-2-((3bS,4aR)-3-(difluoromethyl)-5,5-difluoro-3b,4,4a,5-tetrahydro-1H-cyclopropa[3,4]cyclopenta[1,2-c]pyrazol-1-yl)acetamide], in data set [1], the EC50 is 0.19 nM. Moreover, in data set [2], the CC50 at 4 days was above 500 nM.
On to `Cc1nc(C)c(C)c(-c2ccc3c(=O)n(-c4ccc(Cl)c5c(NS(=O)(=O)C6CC6)nn(CC(F)F)c45)c([C@H](Cc4cc(F)cc(F)c4)NC(=O)Cn4nc(C(F)F)c5c4C(F)(F)[C@@H]4C[C@H]54)nc3c2)n1` (atropisomer, axis not shown; (P)) [Example 92, N—((S)-1-((3P)-3-(4-chloro-3-(cyclopropanesulfonamido)-1-(2,2-difluoroethyl)-1H-indazol-7-yl)-4-oxo-7-(2,5,6-trimethylpyrimidin-4-yl)-3,4-dihydroquinazolin-2-yl)-2-(3,5-difluorophenyl)ethyl)-2-((3bS,4aR)-3-(difluoromethyl)-5,5-difluoro-3b,4,4a,5-tetrahydro-1H-cyclopropa[3,4]cyclopenta[1,2-c]pyrazol-1-yl)acetamide], for which, in data set [1], the EC50 was 0.1 nM. Further, the CC50 at 4 days in data set [2] is above 500 nM.
For `CCc1ccnc(-c2ccc3c(=O)n(-c4ccc(Cl)c5c(NS(=O)(=O)C6CC6)nn(CC(F)F)c45)c([C@H](Cc4cc(F)cc(F)c4)NC(=O)Cn4nc(C(F)F)c5c4C(F)(F)[C@@H]4C[C@H]54)nc3c2)n1` (atropisomer, axis not shown; (P)) [Example 93, N—((S)-1-((3P)-3-(4-chloro-3-(cyclopropanesulfonamido)-1-(2,2-difluoroethyl)-1H-indazol-7-yl)-7-(4-ethylpyrimidin-2-yl)-4-oxo-3,4-dihydroquinazolin-2-yl)-2-(3,5-difluorophenyl)ethyl)-2-((3bS,4aR)-3-(difluoromethyl)-5,5-difluoro-3b,4,4a,5-tetrahydro-1H-cyclopropa[3,4]cyclopenta[1,2-c]pyrazol-1-yl)acetamide] the same measures were 0.18 nM and above 500 nM.
As to `CCc1cc(-c2ccc3c(=O)n(-c4ccc(Cl)c5c(NS(=O)(=O)C6CC6)nn(CC(F)F)c45)c([C@H](Cc4cc(F)cc(F)c4)NC(=O)Cn4nc(C(F)F)c5c4C(F)(F)[C@@H]4C[C@H]54)nc3c2)nc(C)n1` (atropisomer, axis not shown; (P)) [Example 94, N—((S)-1-((3P)-3-(4-chloro-3-(cyclopropanesulfonamido)-1-(2,2-difluoroethyl)-1H-indazol-7-yl)-7-(6-ethyl-2-methylpyrimidin-4-yl)-4-oxo-3,4-dihydroquinazolin-2-yl)-2-(3,5-difluorophenyl)ethyl)-2-((3bS,4aR)-3-(difluoromethyl)-5,5-difluoro-3b,4,4a,5-tetrahydro-1H-cyclopropa[3,4]cyclopenta[1,2-c]pyrazol-1-yl)acetamide], the EC50 in data set [1] was 0.13 nM. Besides, the CC50 at 4 days in data set [2] was above 500 nM.
For `CS(=O)(=O)c1cccnc1-c1ccc2c(=O)n(-c3ccc(Cl)c4c(NS(=O)(=O)C5CC5)nn(CC(F)F)c34)c([C@H](Cc3cc(F)cc(F)c3)NC(=O)Cn3nc(C(F)F)c4c3C(F)(F)[C@@H]3C[C@H]43)nc2c1` (atropisomer, axis not shown; (P)) [Example 95, N—((S)-1-((3P)-3-(4-chloro-3-(cyclopropanesulfonamido)-1-(2,2-difluoroethyl)-1H-indazol-7-yl)-7-(3-(methylsulfonyl)pyridin-2-yl)-4-oxo-3,4-dihydroquinazolin-2-yl)-2-(3,5-difluorophenyl)ethyl)-2-((3bS,4aR)-3-(difluoromethyl)-5,5-difluoro-3b,4,4a,5-tetrahydro-1H-cyclopropa[3,4]cyclopenta[1,2-c]pyrazol-1-yl)acetamide] the same measures were 0.053 nM and above 500 nM.
On to `Cc1nccc(-c2ccc3c(=O)n(-c4ccc(Cl)c5c(NS(C)(=O)=O)nn(C)c45)c([C@H](Cc4cc(F)cc(F)c4)NC(=O)Cn4nc(C(F)F)c5c4C(F)(F)[C@@H]4C[C@H]54)nc3c2)n1` [Example 10, N—((S)-1-((3P)-3-(4-chloro-1-methyl-3-(methylsulfonamido)-1H-indazol-7-yl)-7-(2-methylpyrimidin-4-yl)-4-oxo-3,4-dihydroquinazolin-2-yl)-2-(3,5-difluorophenyl)ethyl)-2-((3bS,4aR)-3-(difluoromethyl)-5,5-difluoro-3b,4,4a,5-tetrahydro-1H-cyclopropa[3,4]cyclopenta[1,2-c]pyrazol-1-yl)acetamide], for which, in data set [1], the EC50 amounted to 0.042 nM. The CC50 at 4 days in data set [2] is above 500 nM.
In the same order, the values of `CN(c1cccc(-c2ccc3c(=O)n(-c4ccc(Cl)c5c(NS(C)(=O)=O)nn(C)c45)c([C@H](Cc4cc(F)cc(F)c4)NC(=O)Cn4nc(C(F)F)c5c4C(F)(F)[C@@H]4C[C@H]54)nc3c2)c1)S(C)(=O)=O` [Example 28, N—((S)-1-((3P)-3-(4-chloro-1-methyl-3-(methylsulfonamido)-1H-indazol-7-yl)-7-(3-(N-methylmethylsulfonamido)phenyl)-4-oxo-3,4-dihydroquinazolin-2-yl)-2-(3,5-difluorophenyl)ethyl)-2-((3bS,4aR)-3-(difluoromethyl)-5,5-difluoro-3b,4,4a,5-tetrahydro-1H-cyclopropa[3,4]cyclopenta[1,2-c]pyrazol-1-yl)acetamide] are 0.22 nM and above 500 nM.
For `CN(c1ccc(-c2ccc3c(=O)n(-c4ccc(Cl)c5c(NS(C)(=O)=O)nn(C)c45)c([C@H](Cc4cc(F)cc(F)c4)NC(=O)Cn4nc(C(F)F)c5c4C(F)(F)[C@@H]4C[C@H]54)nc3c2)cc1)S(C)(=O)=O` [Example 29, N—((S)-1-((3P)-3-(4-chloro-1-methyl-3-(methylsulfonamido)-1H-indazol-7-yl)-7-(4-(N-methylmethylsulfonamido)phenyl)-4-oxo-3,4-dihydroquinazolin-2-yl)-2-(3,5-difluorophenyl)ethyl)-2-((3bS,4aR)-3-(difluoromethyl)-5,5-difluoro-3b,4,4a,5-tetrahydro-1H-cyclopropa[3,4]cyclopenta[1,2-c]pyrazol-1-yl)acetamide], the 50% effective concentration (EC50) in data set [1] came out at 0.29 nM. Also, the CC50 at 4 days in data set [2] was above 500 nM.
In the same order, the values of `Cn1nc(NS(C)(=O)=O)c2c(Cl)ccc(-n3c([C@H](Cc4cc(F)cc(F)c4)NC(=O)Cn4nc(C(F)F)c5c4C(F)(F)[C@@H]4C[C@H]54)nc4cc(-c5ccccc5S(=O)(=O)C(C)(C)C)ccc4c3=O)c21` [Example 32, N—((S)-1-(7-(2-(tert-butylsulfonyl)phenyl)-(3P)-3-(4-chloro-1-methyl-3-(methylsulfonamido)-1H-indazol-7-yl)-4-oxo-3,4-dihydroquinazolin-2-yl)-2-(3,5-difluorophenyl)ethyl)-2-((3bS,4aR)-3-(difluoromethyl)-5,5-difluoro-3b,4,4a,5-tetrahydro-1H-cyclopropa[3,4]cyclopenta[1,2-c]pyrazol-1-yl)acetamide] are 0.11 nM and above 500 nM.
For `Cc1cc(C(F)(F)F)nc(-c2ccc3c(=O)n(-c4ccc(Cl)c5c(NS(C)(=O)=O)nn(C)c45)c([C@H](Cc4cc(F)cc(F)c4)NC(=O)Cn4nc(C(F)F)c5c4C(F)(F)[C@@H]4C[C@H]54)nc3c2)n1` [Example 53, N—((S)-1-((3P)-3-(4-chloro-1-methyl-3-(methylsulfonamido)-1H-indazol-7-yl)-7-(4-methyl-6-(trifluoromethyl)pyrimidin-2-yl)-4-oxo-3,4-dihydroquinazolin-2-yl)-2-(3,5-difluorophenyl)ethyl)-2-((3bS,4aR)-3-(difluoromethyl)-5,5-difluoro-3b,4,4a,5-tetrahydro-1H-cyclopropa[3,4]cyclopenta[1,2-c]pyrazol-1-yl)acetamide] the same measures were 0.16 nM and above 500 nM.
Consider `CCC(C)c1nccc(-c2ccc3c(=O)n(-c4ccc(Cl)c5c(NS(C)(=O)=O)nn(C)c45)c([C@H](Cc4cc(F)cc(F)c4)NC(=O)Cn4nc(C(F)F)c5c4C(F)(F)[C@@H]4C[C@H]54)nc3c2)n1` (stereo partly drawn) [Example 70, N-((1S)-1-(7-(2-(sec-butyl)pyrimidin-4-yl)-(3P)-3-(4-chloro-1-methyl-3-(methylsulfonamido)-1H-indazol-7-yl)-4-oxo-3,4-dihydroquinazolin-2-yl)-2-(3,5-difluorophenyl)ethyl)-2-((3bS,4aR)-3-(difluoromethyl)-5,5-difluoro-3b,4,4a,5-tetrahydro-1H-cyclopropa[3,4]cyclopenta[1,2-c]pyrazol-1-yl)acetamide], for which the EC50 in data set [1] stood at 0.26 nM. Also, the CC50 at 4 days in data set [2] is above 500 nM.
